In patent US20070117773A1, “Telomerase-inhibiting ENA oligonucleotide” (SANKYO COMPANY, LIMITED, priority 2004, published 2007):

System: RNA oligonucleotide having the sequence of telomerase RNA (5′-UUGUCUAACCCUA-3′)
Test: Test for determining melting temperature (Tm) with telomerase RNA oligonucleotide
Assay type: binding, human
Conditions: 3.4 μM compound + 3.4 μM RNA oligonucleotide, 10 mM sodium phosphate buffer (pH 7.2), absorbance at 260 nm, 20° C. to 95° C.

Substance | Tm (melting temperature) [°C]
HO-T^e2s-A^e2s-G^e2s-G^e2s-G^e2s-T^e2s-T^e2s-A^e2s-CH2CH2OH [Example 4] | 62
HO-T^e2s-A^e2s-G^e2s-G^e2s-G^e2s-T^e2s-T^e2s-A^e2s-G^e2s-A^e2s-CH2CH2OH [Example 3] | 74
HO-T^e2s-A^e2s-G^e2s-G^e2s-G^e2s-T^e2s-T^e2s-A^e2s-G^e2s-A^e2s-C^e2s-A^e2s-CH2CH2OH [Example 2] | 87
HO-T^e2s-A^e2s-G^e2s-G^e2s-G^e2s-T^e2s-T^e2s-A^e2s-G^e2s-CH2CH2OH [Example 6] | 71
HO-T^e2s-A^e2s-G^e2s-G^e2s-G^e2s-T^e2s-T^e2s-A^e2s-G^e2s-C^e2s-A^e2s-A^e2s-CH2CH2OH [Example 1] | 85
HO-T^e2s-A^e2s-G^e2s-G^e2s-G^e2s-T^e2s-T^e2s-CH2CH2OH [Example 5] | 52
